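Following 48 hours of exposure in 96-well plates, responses at five concentrations were used to interpolate endpoints linearly. Here, GI50 denotes the concentration required for 50% inhibition of growth.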 Active and inactive are the calls of the source. No stated cut-off is given here; in the data, active = GI50 up to about 1.1 µM and inactive = higher. Some results are limits rather than exact numbers.

Some test systems named below: HCC 2998; ACHN; NCI-H460; HCT-116; COLO 205; OVCAR-5; OVCAR-4; DU-145; UACC-257; HOP-62; LOX IMVI; CCRF-CEM; SR; MOLT-4; SF-268; M14; Hs-578T; CAKI-1.
Holding throughout (experiment): NCI tumour cell line growth inhibition, 48 h

Consider `CN1c2ccccc2C(=O)NC12CCN(Cc1ccccc1)CC2`, for which the GI50 was 83.6 µM (inactive) in the assay on HCC 2998; 31.2 µM (inactive) in the assay on ACHN; 39.4 µM (inactive) with NCI-H460; 44.9 µM (inactive) in the assay on HCT-116; 35.4 µM (inactive) in the assay on COLO 205; > 100 µM (inactive) in the assay on OVCAR-5. The GI50 is 80.2 µM (inactive) in the assay on OVCAR-4; 71.6 µM (inactive) in the assay on DU-145; 59.6 µM (inactive) in the assay with UACC-257; 54.7 µM (inactive) in the assay with HOP-62; 46 µM (inactive) with LOX IMVI; 35.6 µM (inactive) in the assay with CCRF-CEM. For the same compound, the GI50 was 33.3 µM (inactive) in the assay on SR; 38.9 µM (inactive) in the assay with MOLT-4; 89.7 µM (inactive) in the assay on SF-268; 33.4 µM (inactive) in the assay with M14; 36.7 µM (inactive) with Hs-578T.
For `Cc1c(C(=O)Nc2ccc(Cl)c(C(F)(F)F)c2)oc2cc(O)ccc2/c1=N\NC(N)=S`, the GI50 in the assay with HCC 2998, with ACHN, in the assay on NCI-H460, with HCT-116, with COLO 205 and with OVCAR-5 was > 100 µM (inactive) throughout. Further, the GI50 in the assay on OVCAR-4, in the assay with UACC-257, in the assay with HOP-62, in the assay on LOX IMVI, in the assay on CCRF-CEM and with SR was > 100 µM (inactive) each time. Moreover, the GI50 in the assay on MOLT-4, with SF-268, with M14 and in the assay with CAKI-1 was > 100 µM (inactive) throughout.
For `Oc1cc2cc(-c3ccccc3)[nH]c2c2ccccc12`, the GI50 was 49.5 µM (inactive) in the assay on HCC 2998; 25 µM (inactive) with ACHN; 24 µM (inactive) in the assay with NCI-H460; 17.1 µM (inactive) with HCT-116; 10.4 µM (inactive) in the assay on COLO 205; > 100 µM (inactive) with OVCAR-5. The GI50 with OVCAR-4 is 33.4 µM (inactive); in the assay on UACC-257, 16 µM (inactive); in the assay on HOP-62, > 85.9 µM (inactive); with LOX IMVI, 16.1 µM (inactive); in the assay on CCRF-CEM it was 28.6 µM (inactive); in the assay on SR it was > 57 µM (inactive). In addition, the GI50 was 39.9 µM (inactive) in the assay on MOLT-4, 47.1 µM (inactive) in the assay with SF-268, 20.3 µM (inactive) in the assay with M14 and 18.5 µM (inactive) in the assay with CAKI-1.
For the compound `COc1nc(OC)c2c(=O)oc(-c3ccccc3)cc2n1`, the GI50 with HCC 2998, in the assay on ACHN, in the assay on HCT-116, with OVCAR-5, in the assay with OVCAR-4 and with UACC-257 was > 100 µM (inactive) each time. In addition, the GI50 in the assay on SR, with MOLT-4, with SF-268 and in the assay on CAKI-1 was > 100 µM (inactive) throughout.
For the compound `CCOC(=O)C1=C(Nc2cccc3ccccc23)OCC1=O`, the GI50 in the assay on HCC 2998, in the assay on ACHN, with NCI-H460, in the assay with HCT-116, in the assay with COLO 205 and with OVCAR-5 was > 100 µM (inactive) in each case. Further, the GI50 with OVCAR-4, with UACC-257, with HOP-62, in the assay with CCRF-CEM, in the assay with SR and in the assay with MOLT-4 was > 100 µM (inactive) throughout. The GI50 in the assay with SF-268, with M14 and with CAKI-1 was > 100 µM (inactive) throughout.
As for `CC(=O)NC(CCCN(Cc1ccccc1)C(=O)NCCCl)C(=O)NCc1ccccc1` (centres undefined), the GI50 in the assay with HCC 2998, in the assay on ACHN, in the assay with NCI-H460, with HCT-116, with COLO 205 and in the assay with OVCAR-5 was > 100 µM (inactive) each time. Also, the GI50 in the assay on OVCAR-4, in the assay with UACC-257, in the assay on HOP-62, in the assay with LOX IMVI, in the assay with CCRF-CEM and in the assay with SR was > 100 µM (inactive) in each case. The GI50 in the assay on MOLT-4, with SF-268, in the assay with M14 and in the assay on CAKI-1 was > 100 µM (inactive) in each case.
With `Cc1ccc(S(=O)(=O)N/N=C(\c2nc3ccc(Cl)cc3nc2O)C(O)c2cccc([N+](=O)[O-])c2)cc1` (centres undefined), the GI50 in the assay with HCC 2998, with ACHN, with NCI-H460, in the assay with HCT-116, in the assay with COLO 205 and in the assay with OVCAR-5 was > 100 µM (inactive) throughout. For the same compound, the GI50 in the assay on OVCAR-4 is > 100 µM (inactive); in the assay with UACC-257 it was > 100 µM (inactive); in the assay with HOP-62, > 100 µM (inactive); in the assay with LOX IMVI it was > 100 µM (inactive); in the assay on CCRF-CEM, 52.7 µM (inactive); with SR, > 100 µM (inactive). Further, the GI50 in the assay with MOLT-4, with SF-268, in the assay on M14 and with CAKI-1 was > 100 µM (inactive) in each case.
For the compound `c1ccc2c(c1)CCc1c(-c3n[nH]c4c3CCc3ccccc3-4)n[nH]c1-2`, the GI50 with HCC 2998, in the assay with ACHN, with NCI-H460, in the assay on HCT-116, in the assay with COLO 205 and with OVCAR-5 was > 100 µM (inactive) in each case. Moreover, the GI50 in the assay on UACC-257 was > 100 µM (inactive); in the assay with HOP-62, > 100 µM (inactive); in the assay with LOX IMVI it was > 100 µM (inactive); in the assay on CCRF-CEM it was > 100 µM (inactive); with SR, 46.9 µM (inactive); in the assay with MOLT-4 it was 87.9 µM (inactive). Further, the GI50 in the assay on SF-268, in the assay with M14 and in the assay with CAKI-1 was > 100 µM (inactive) in each case.
For the compound `Cc1ccc([S+](c2ccccc2)c2cc(C)ccc2C)cc1` (centres undefined), the GI50 in the assay on HCC 2998 is 1.7 µM (inactive); in the assay with ACHN, 11.2 µM (inactive); in the assay with NCI-H460 it was 6.38 µM (inactive); with HCT-116, 2.94 µM (inactive); in the assay on COLO 205 it was 2.99 µM (inactive); with OVCAR-4 it was 29.4 µM (inactive). The GI50 was 1.48 µM (inactive) in the assay with UACC-257; 15.1 µM (inactive) in the assay with HOP-62; 2.35 µM (inactive) with LOX IMVI; 0.438 µM (active) in the assay with CCRF-CEM; 24.6 µM (inactive) with SR; 3.65 µM (inactive) in the assay with MOLT-4. For the same compound, the GI50 is 6.64 µM (inactive) in the assay with SF-268, 22.2 µM (inactive) in the assay with M14 and 26.7 µM (inactive) in the assay with CAKI-1.
On to `N=C(N)N/N=C/c1c[nH]c2ccccc12`, for which the GI50 in the assay with HCC 2998, in the assay on ACHN, in the assay on NCI-H460, in the assay on COLO 205, with OVCAR-5 and in the assay on OVCAR-4 was > 100 µM (inactive) in each case. Moreover, the GI50 with UACC-257, with HOP-62, with LOX IMVI, in the assay on CCRF-CEM, in the assay on SR and in the assay with MOLT-4 was > 100 µM (inactive) in each case. Further, the GI50 with SF-268, in the assay with M14 and in the assay with CAKI-1 was > 100 µM (inactive) throughout.
Take `CCOC(=O)/C(=C\c1ccccc1)C(=O)O`: the GI50 in the assay on HCC 2998, in the assay on ACHN, in the assay on NCI-H460, in the assay with HCT-116, in the assay with COLO 205 and with OVCAR-5 was > 100 µM (inactive) in each case. The GI50 in the assay on OVCAR-4, in the assay on UACC-257, in the assay with HOP-62, with LOX IMVI, in the assay on CCRF-CEM and in the assay with SR was > 100 µM (inactive) in each case. Also, the GI50 in the assay with MOLT-4, in the assay with SF-268, in the assay on M14 and in the assay with CAKI-1 was > 100 µM (inactive) in each case.
`CCC12C=CCN3CC[C@]4(C(=C(C(=O)OC)[C@@H]1Nc1ccn(C5OC(COC(C)=O)C(OC(C)=O)C5OC(C)=O)c(=O)n1)Nc1ccccc14)C32` (some centres undefined): the GI50 in the assay on HCC 2998 was 4.3 µM (inactive); with ACHN, 4.43 µM (inactive); in the assay on NCI-H460 it was 4.45 µM (inactive); in the assay on HCT-116 it was 4 µM (inactive); in the assay with COLO 205, 4.59 µM (inactive); in the assay on OVCAR-5 it was 1.82 µM (inactive). Moreover, the GI50 with OVCAR-4 was 1.72 µM (inactive); with UACC-257, 1.26 µM (inactive); in the assay on HOP-62, 4.93 µM (inactive); in the assay with LOX IMVI it was 4.26 µM (inactive); in the assay on CCRF-CEM it was 4.59 µM (inactive); with SR, 3.94 µM (inactive). Moreover, the GI50 is 6.58 µM (inactive) in the assay with MOLT-4, 5.55 µM (inactive) with SF-268, 4.18 µM (inactive) in the assay with M14 and 5.37 µM (inactive) in the assay on CAKI-1.
On to `CO[C@H](C(=O)O[C@H]1C(=O)N2CC[C@@H]3CCC[C@H]1C32C)c1ccccc1` (some centres undefined), for which the GI50 was 60.8 µM (inactive) in the assay on HCC 2998; > 100 µM (inactive) in the assay on ACHN; > 100 µM (inactive) with NCI-H460; > 100 µM (inactive) in the assay on HCT-116; > 100 µM (inactive) in the assay on COLO 205; > 100 µM (inactive) in the assay with OVCAR-5. Moreover, the GI50 with OVCAR-4, in the assay with UACC-257, with HOP-62, in the assay with LOX IMVI, in the assay on CCRF-CEM and in the assay with SR was > 100 µM (inactive) in each case. The GI50 in the assay with MOLT-4, in the assay with SF-268, in the assay with M14 and in the assay on CAKI-1 was > 100 µM (inactive) throughout.

The values are drawn from ChEMBL document CHEMBL1201862, “PubChem BioAssay data set” (2004).
